Legend:
[1] = system: S. pneumoniae D39V; assay: fitness (endpoint OD595 vs no drug) (fraction); higher = more growth
Outline: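 Growth medium was TSB, LB Lennox or CY, and plates were kept at 37 °C. Inoculation was at OD595 0.01 in 384-well plates, at 30 µl per well or 55 µl for S. pneumoniae. OD595 was monitored every 30 min for 14 h and background-subtracted using the first reading. Fitness is the optical density on entering stationary phase divided by the robust mean of no-drug controls, with values capped at 1.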

[2] = system: B. subtilis 168; assay: Bliss interaction score (quartile over a dose matrix) (fitness difference); higher = more antagonism (negative = synergy)
Outline: (§1)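 Quartiles summarise the Bliss score over technical, biological and donor/recipient replicates, where the score is observed minus expected fitness under a product model. Expected fitness uses single-drug values inferred from combination data. Fitness is OD595 at entry into stationary phase over the plate's robust no-drug mean, capped at 1.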

[3] = system: S. aureus DSM 20231; assay: as above
Outline: as §1

[4] = system: S. aureus Newman; assay: as above
Outline: as §1

[5] = system: S. pneumoniae D39V; assay: as above
Outline: as §1
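For Bliss interaction score (quartile over a dose matrix) in this document: first quartile when negative (synergy) and third quartile when positive (antagonism).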

Cn1c2cccc(=O)c-2nc2ccccc21 [Pyocyanin] + CO[C@H]1/C=C/O[C@@]2(C)Oc3c(C)c(O)c4c(O)c(c(/C=N/N5CCN(C)CC5)c(O)c4c3C2=O)NC(=O)/C(C)=C\C=C\[C@H](C)[C@H](O)[C@@H](C)[C@@H](O)[C@@H](C)[C@H](OC(C)=O)[C@@H]1C [Rifampicin]
fitness, [1], one replicate
Settings | first compound 0.325 µg/mL | first compound 0.65 µg/mL | first compound 1.3 µg/mL
partner 0.025 µg/mL | 0.917 | 0.942 | 0.765
partner 0.2 µg/mL | – | – | 0.021

fitness, [1]
Settings | first compound 0.325 µg/mL | first compound 0.65 µg/mL
partner 0.05 µg/mL | – | 0.885
partner 0.2 µg/mL | 0.0407 | 0.178

Settings | Bliss interaction score
[2] | -0.0612
[3] | 0.031
[4] | 0.0295
[5] | 0.0928

Clc1ccc(COC(Cn2ccnc2)c2ccc(Cl)cc2Cl)c(Cl)c1 (stereo not given) [Miconazole] + COc1c(N2C[C@@H]3CCCN[C@@H]3C2)c(F)cc2c(=O)c(C(=O)O)cn(C3CC3)c12 [Moxifloxacin]
fitness, [1]
Settings | first compound 1.073 µg/mL | first compound 1.25 µg/mL | first compound 2.145 µg/mL | first compound 2.5 µg/mL | first compound 4.29 µg/mL | first compound 5 µg/mL
partner 0.0037 µg/mL | 0.959 | – | 0.951 | – | 0.802 | –
partner 0.005 µg/mL | – | 0.935 | – | 0.926 | – | 0.953
partner 0.0075 µg/mL | 0.986 | – | 0.942 | – | 0.796 | –
partner 0.01 µg/mL | – | 0.925 | – | 0.936 | – | 0.961
partner 0.015 µg/mL | 0.957 | – | 0.942 | – | 0.682 | –
partner 0.02 µg/mL | – | 0.825 | – | 0.828 | – | 0.911

Settings | Bliss interaction score
[2] | -0.0223
[3] | -0.059
[4] | 0.0536
[5] | 0.0598

Clc1ccc(COC(Cn2ccnc2)c2ccc(Cl)cc2Cl)c(Cl)c1 (stereo not given) [Miconazole] + CN1C2=CC=CC=C2N=C3C1=CC=CC3=O [Pyocyanin]
fitness, [1]
Settings | first compound 1.073 µg/mL | first compound 2.145 µg/mL | first compound 4.29 µg/mL
partner 0.325 µg/mL | ≥ 1 | ≥ 1 | ≥ 1
partner 0.65 µg/mL | 0.975 | 1 | 0.908
partner 1.3 µg/mL | 0.787 | – | 0.729

fitness, [1], one replicate
Settings | first compound 1.25 µg/mL | first compound 2.5 µg/mL | first compound 5 µg/mL
partner 0.325 µg/mL | 0.917 | 0.916 | 0.93
partner 0.65 µg/mL | 0.963 | 0.905 | 0.907

Settings | Bliss interaction score
[2] | -0.0752
[3] | 0.0453
[4] | 0.0548
[5] | 0.0535

Clc1ccc(COC(Cn2ccnc2)c2ccc(Cl)cc2Cl)c(Cl)c1 (stereo not given) [Miconazole] + CO[C@H]1/C=C/O[C@@]2(C)Oc3c(C)c(O)c4c(O)c(c(/C=N/N5CCN(C)CC5)c(O)c4c3C2=O)NC(=O)/C(C)=C\C=C\[C@H](C)[C@H](O)[C@@H](C)[C@@H](O)[C@@H](C)[C@H](OC(C)=O)[C@@H]1C [Rifampicin]
fitness, [1]
Settings | first compound 1.073 µg/mL | first compound 1.25 µg/mL | first compound 2.145 µg/mL | first compound 2.5 µg/mL | first compound 4.29 µg/mL | first compound 5 µg/mL
partner 0.05 µg/mL | 0.974 | 0.774 | 1 | 0.806 | 0.998 | 0.779
partner 0.1 µg/mL | – | 0.411 | – | 0.41 | 0.776 | –
partner 0.2 µg/mL | 0.363 | – | 0.37 | – | 0.477 | –

fitness, [1], one replicate
Settings | first compound 1.25 µg/mL | first compound 2.5 µg/mL | first compound 5 µg/mL
partner 0.025 µg/mL | 0.856 | 0.861 | 0.853
partner 0.2 µg/mL | 0 | 0 | 0

Settings | Bliss interaction score
[2] | 0.0476
[3] | 0.035
[4] | 0.0801
[5] | 0.169

Clc1ccc(COC(Cn2ccnc2)c2ccc(Cl)cc2Cl)c(Cl)c1 (stereo not given) [Miconazole] + Cc1cc(NS(=O)(=O)c2ccc(N)cc2)no1 [Sulfamethoxazol]
fitness, [1]
Settings | first compound 1.073 µg/mL | first compound 2.145 µg/mL | first compound 4.29 µg/mL
partner 1 µg/mL | 0.989 | ≥ 1 | 0.946
partner 2 µg/mL | 0.981 | 0.998 | 0.923
partner 4 µg/mL | 0.999 | 0.988 | 0.924

fitness, [1], one replicate
Settings | first compound 1.25 µg/mL | first compound 2.5 µg/mL | first compound 5 µg/mL
partner 1 µg/mL | 0.94 | 0.966 | 0.932
partner 2 µg/mL | 0.894 | 0.955 | 0.908
partner 4 µg/mL | 0.892 | 0.876 | 0.864

Settings | Bliss interaction score
[2] | 0.0845
[3] | 0.0319
[4] | 0.0463
[5] | 0.0572

Clc1ccc(COC(Cn2ccnc2)c2ccc(Cl)cc2Cl)c(Cl)c1 (stereo not given) [Miconazole] + CC1=C\[C@@H](O)CC(=O)Cc2nc(co2)C(=O)N2CCC=C2C(=O)O[C@H](C(C)C)[C@H](C)/C=C/C(=O)NC\C=C\1 [Virginiamycin M1]
fitness, [1]
Settings | first compound 1.073 µg/mL | first compound 1.25 µg/mL | first compound 2.145 µg/mL | first compound 2.5 µg/mL | first compound 4.29 µg/mL | first compound 5 µg/mL
partner 0.5 µg/mL | ≥ 1 | – | ≥ 1 | – | 0.882 | –
partner 1 µg/mL | ≥ 1 | – | ≥ 1 | – | ≥ 1 | –
partner 2 µg/mL | 0.983 | 0.902 | ≥ 1 | 0.903 | 0.988 | 0.879

fitness, [1], one replicate
Settings | partner 0.15 µg/mL | partner 0.3 µg/mL | partner 0.5 µg/mL | partner 1 µg/mL
first compound 1.25 µg/mL | 0.949 | 0.905 | ≥ 1 | ≥ 1
first compound 2.5 µg/mL | 0.95 | 0.902 | ≥ 1 | ≥ 1
first compound 5 µg/mL | 0.906 | 0.904 | 0.997 | 0.891

Settings | Bliss interaction score
[2] | 0.103
[3] | 0.0731
[4] | 0.0829
[5] | 0.0555

CC1=C(C(=O)O)N2C(=O)[C@@H](NC(=O)[C@H](N)c3ccccc3)[C@H]2SC1 [Cephalexin] + O=C1CN(/N=C/c2ccc([N+](=O)[O-])o2)C(=O)N1 [Nitrofurantoin]
fitness, [1], one replicate
Settings | first compound 0.125 µg/mL | first compound 0.25 µg/mL | first compound 0.5 µg/mL | first compound 1 µg/mL | first compound 2 µg/mL | first compound 4 µg/mL
partner 2 µg/mL | 0.934 | 0.942 | 0.958 | – | – | –
partner 4 µg/mL | 0.92 | 0.958 | 0.953 | – | – | –
partner 5.14 µg/mL | – | – | – | 0.716 | 0.243 | 0.0653
partner 8 µg/mL | 0.756 | 0.775 | 0.805 | – | – | –

fitness, [1]
Settings | first compound 1 µg/mL | first compound 2 µg/mL | first compound 4 µg/mL
partner 1.285 µg/mL | 0.762 | 0.226 | 0.0641
partner 2.57 µg/mL | 0.768 | 0.336 | 0.0742

Settings | Bliss interaction score
[2] | 0.0716
[3] | 0.145
[4] | 0.0656
[5] | 0.168

Clc1ccc(COC(Cn2ccnc2)c2ccc(Cl)cc2Cl)c(Cl)c1 (stereo not given) [Miconazole] + C/C(=C\C(=O)OCCCCCCCCC(=O)O)C[C@@H]1OC[C@H](C[C@@H]2O[C@H]2[C@@H](C)[C@H](C)O)[C@@H](O)[C@H]1O [Pseudomonic acid]
fitness, [1]
Settings | first compound 1.073 µg/mL | first compound 1.25 µg/mL | first compound 2.145 µg/mL | first compound 2.5 µg/mL | first compound 4.29 µg/mL | first compound 5 µg/mL
partner 0.03 µg/mL | 0.988 | 0.915 | ≥ 1 | 0.894 | ≥ 1 | 0.88
partner 0.06 µg/mL | 0.914 | 0.746 | 0.94 | 0.754 | 0.981 | 0.681
partner 0.12 µg/mL | 0.734 | 0.563 | 0.759 | 0.551 | – | 0.549

Settings | Bliss interaction score
[2] | -0.0459
[3] | 0.0125
[4] | -0.0143
[5] | 0.126

Clc1ccc(COC(Cn2ccnc2)c2ccc(Cl)cc2Cl)c(Cl)c1 (stereo not given) [Miconazole] + CN(C)c1cc(NC(=O)CNC(C)(C)C)c(O)c2c1C[C@H]1C[C@H]3[C@H](N(C)C)C(O)=C(C(N)=O)C(=O)[C@@]3(O)C(O)=C1C2=O [Tigecycline]
fitness, [1]
Settings | first compound 1.073 µg/mL | first compound 1.25 µg/mL | first compound 2.145 µg/mL | first compound 2.5 µg/mL | first compound 4.29 µg/mL | first compound 5 µg/mL
partner 0.65 µg/mL | 0.992 | 0.974 | 0.998 | 0.982 | ≥ 1 | ≥ 1
partner 1.3 µg/mL | ≥ 1 | 0.997 | 0.992 | 0.991 | ≥ 1 | ≥ 1
partner 2.6 µg/mL | 0.999 | 0.982 | ≥ 1 | 0.993 | 0.998 | 0.927

Settings | Bliss interaction score
[2] | 0.0621
[3] | 0.0455
[4] | 0.0412
[5] | 0.0957

C[n+]1ccc(-c2cc[n+](C)cc2)cc1 [Paraquat] + CO[C@H]1/C=C/O[C@@]2(C)Oc3c(C)c(O)c4c(O)c(c(/C=N/N5CCN(C)CC5)c(O)c4c3C2=O)NC(=O)/C(C)=C\C=C\[C@H](C)[C@H](O)[C@@H](C)[C@@H](O)[C@@H](C)[C@H](OC(C)=O)[C@@H]1C [Rifampicin]
[1], partner 0.025 µg/mL, one replicate
Settings | fitness
first compound 1.5 µg/mL | 0.869
first compound 3 µg/mL | 0.833
first compound 6 µg/mL | 0.842

fitness, [1]
Settings | first compound 1.5 µg/mL | first compound 3 µg/mL | first compound 6 µg/mL
partner 0.05 µg/mL | – | 0.882 | 0.897
partner 0.2 µg/mL | 0.0862 | 0.102 | 0.0798

Settings | Bliss interaction score
[2] | 0.0618
[3] | 0.0593
[4] | 0.0217
[5] | -0.0393

From the supplement of paper PMC10627819
